According to US20240384350A1, “METHODS OF TREATING CANCER WITH KINASE INHIBITORS” (BOARD OF REGENTS, THE UNIVERSITY OF TEXAS SYSTEM, priority 2021, published 2024):

Experiments:
Assay in all cases: Ba/F3 drug screening, Cell Titer Glo, IC50 Mut/WT
Type in all cases: cell-based
EGFR H773insNPH = target: T1, EGFR H773insNPH (Homo sapiens, UniProt P00533, INS773NPH); conditions: Ex20, 72 hours
T1 construct: expressed in transfected cells; host or cells: Ba/F3 cells, retroviral pBabe-Puro vector

EGFR G719S T790M = target: T2, EGFR G719S T790M (Homo sapiens, UniProt P00533, G719S/T790M); conditions: T790M-like-3S, 72 hours
T2 construct: expressed in transfected cells; host or cells: Ba/F3

EGFR Ex19del = target: T3, EGFR Ex19del (Homo sapiens, UniProt P00533, DEL746-750); conditions: Classical-Like, 72 hours
T3 construct: expressed in transfected cells; host or cells: Ba/F3 cells, retroviral pBabe-Puro vector

EGFR R776C = target: T4, EGFR R776C (Homo sapiens, UniProt P00533, R776C); conditions: Ba/F3 cells, EGFR R776C (PACC), Mut/WT
T4 construct: host or cells: Ba/F3
Method: (§1) Data represent the ratio of the IC50 value for a given TKI for cells with a PACC EGFR mutation to the IC50 value for cells with wildtype EGFR.
(§2) Ba/F3 cell generation, drug screening, and IC50 approximations. Ba/F3 cells were obtained as a gift from Dr. Gordon Mills (MD Anderson Cancer Center), and maintained in RPMI (Sigma) containing 10% FBS, 1% penicillin/streptomycin, and 10 ng/ml recombinant mIL-3 (R&D Biosystems). To establish stable Ba/F3 cell lines, Ba/F3 cells were transduced with retroviruses containing mutant EGFR plasmids for 12-24 hours.
(§3) After 48-72 hours of transduction, 2 μg/ml puromycin (Invitrogen) was added to Ba/F3 cell lines in complete RPMI. To select for EGFR positive cell lines, cells were stained with PE-EGFR (Biolegend) and sorted by FACS. After sorting, EGFR positive cells were maintained in RPMI containing 10% FBS, 1% penicillin/streptomycin, and 1 ng/ml EGF to support cell viability. Drug screening was performed as previously described^41,42. Shortly, cells were plated in 384-well plates (Greiner Bio-One) at 2000-3000 cells per well in technical triplicate. Seven different concentrations of TKIs or DMSO vehicle were added to reach a final volume of 40 μL per well. After 72 hours, 11 μL of Cell Titer Glo (Promega) was added to each well. Plates were incubated for a minimum of 10 minutes, and bioluminescence was determined using a FLUOstar OPTIMA plate reader (BMG LABTECH). Raw bioluminescence values were normalized to DMSO control treated cells, and values were plotted in GraphPad Prism. […] Drug screens were performed in technical triplicate on each plate and either duplicate or triplicate biological replicates.

EGFR L858R/L792H = target: T5, EGFR L858R/L792H (Homo sapiens, UniProt P00533, L792H/L858R); conditions: Ba/F3 cells, EGFR L858R/L792H (PACC), Mut/WT
T5 construct: expressed in transfected cells; host or cells: Ba/F3
Method: as §1, §2, §3

EGFR L861Q = target: T6, EGFR L861Q (Homo sapiens, UniProt P00533, L861Q); conditions: Classical-Like, 72 hours
T6 construct: expressed in transfected cells; host or cells: Ba/F3 cells, retroviral pBabe-Puro vector
Method: (§4) Data represent the ratio of the IC50 value for a given TKI for cells with a classical-like EGFR mutation to the IC50 value for cells with wildtype EGFR.
as §2
(§5) After 48-72 hours of transduction, 2 μg/ml puromycin (Invitrogen) was added to Ba/F3 cell lines in complete RPMI. To select for EGFR positive cell lines, cells were stained with PE-EGFR (Biolegend) and sorted by FACS. After sorting, EGFR positive cells were maintained in RPMI containing 10% FBS, 1% penicillin/streptomycin, and 1 ng/ml EGF to support cell viability. […] Shortly, cells were plated in 384-well plates (Greiner Bio-One) at 2000-3000 cells per well in technical triplicate. Seven different concentrations of TKIs or DMSO vehicle were added to reach a final volume of 40 μL per well. After 72 hours, 11 μL of Cell Titer Glo (Promega) was added to each well. Plates were incubated for a minimum of 10 minutes, and bioluminescence was determined using a FLUOstar OPTIMA plate reader (BMG LABTECH). Raw bioluminescence values were normalized to DMSO control treated cells, and values were plotted in GraphPad Prism. […] Drug screens were performed in technical triplicate on each plate and either duplicate or triplicate biological replicates.

EGFR E709A G719S = target: T7, EGFR E709A G719S (Homo sapiens, UniProt P00533, E709A/G719S); conditions: Ba/F3 cells, EGFR E709A G719S (PACC), Mut/WT
T7 construct: expressed in transfected cells; host or cells: Ba/F3

EGFR V774M = target: T8, EGFR V774M (Homo sapiens, UniProt P00533, V774M); conditions: Ba/F3 cells, EGFR V774M (PACC), Mut/WT
T8 construct: host or cells: Ba/F3

EGFR T790M = target: T9, EGFR T790M (Homo sapiens, UniProt P00533, T790M); conditions: T790M-like-3S, 72 hours
T9 construct: expressed in transfected cells; host or cells: Ba/F3
Method: Data represent the ratio of the IC50 value for a given TKI for cells with a T790M-like-3S EGFR mutation to the IC50 value for cells with wildtype EGFR.
as §2, §3

EGFR S768dupSVD = target: T10, EGFR S768dupSVD (Homo sapiens, UniProt P00533, DUP768-770); conditions: Ex20, 72 hours
T10 construct: expressed in transfected cells; host or cells: Ba/F3 cells, retroviral pBabe-Puro vector
Method: Data represent the ratio of the IC50 value for a given TKI for cells with an ex20ins EGFR mutation to the IC50 value for cells with wildtype EGFR.
as §2
After 48-72 hours of transduction, 2 μg/ml puromycin (Invitrogen) was added to Ba/F3 cell lines in complete RPMI. To select for EGFR positive cell lines, cells were stained with PE-EGFR (Biolegend) and sorted by FACS. After sorting, EGFR positive cells were maintained in RPMI containing 10% FBS, 1% penicillin/streptomycin, and 1 ng/ml EGF to support cell viability. Drug screening was performed as previously described^41,42. Shortly, cells were plated in 384-well plates (Greiner Bio-One) at 2000-3000 cells per well in technical triplicate. Seven different concentrations of TKIs or DMSO vehicle were added to reach a final volume of 40 μL per well. After 72 hours, 11 μL of Cell Titer Glo (Promega) was added to each well. Plates were incubated for a minimum of 10 minutes, and bioluminescence was determined using a FLUOstar OPTIMA plate reader (BMG LABTECH). Raw bioluminescence values were normalized to DMSO control treated cells, and values were plotted in GraphPad Prism. […] Drug screens were performed in technical triplicate on each plate and either duplicate or triplicate biological replicates. […] Statistical differences between groups were determined by ANOVA as described in the figure legends.

EGFR G719A = target: T11, EGFR G719A (Homo sapiens, UniProt P00533, G719A); conditions: Ba/F3 cells, EGFR G719A (PACC), Mut/WT
T11 construct: expressed in transfected cells; host or cells: Ba/F3
Method: as §1, §2, §3

EGFR L747P = target: T12, EGFR L747P (Homo sapiens, UniProt P00533, L747P); conditions: Ba/F3 cells, EGFR L747P (PACC), Mut/WT
T12 construct: expressed in transfected cells; host or cells: Ba/F3

EGFR L718Q T790M = target: T13, EGFR L718Q T790M (Homo sapiens, UniProt P00533, L718Q/T790M); conditions: T790M-like-3R, 72 hours
T13 construct: expressed in transfected cells; host or cells: Ba/F3

EGFR N771dupN G724S = target: T14, EGFR N771dupN G724S (Homo sapiens, UniProt P00533, DUP771-771/G724S); conditions: Ex20, 72 hours
T14 construct: expressed in transfected cells; host or cells: Ba/F3 cells, retroviral pBabe-Puro vector (vector made by GeneScript from EGFR G724S, c.2313_2314insAAC)

EGFR S720P = target: T15, EGFR S720P (Homo sapiens, UniProt P00533, S720P); conditions: Classical-Like, 72 hours
T15 construct: expressed in transfected cells; host or cells: Ba/F3 cells, retroviral pBabe-Puro vector (vector made by GeneScript from EGFR WT)
Method: as §4, §2, §5

EGFR E709K L858R = target: T16, EGFR E709K L858R (Homo sapiens, UniProt P00533, E709K/L858R); conditions: Classical-Like, 72 hours
T16 construct: expressed in transfected cells; host or cells: Ba/F3 cells, retroviral pBabe-Puro vector
Method: as §4, §2, §5

EGFR L858R S784F = target: T17, EGFR L858R S784F (Homo sapiens, UniProt P00533, L858R/S784F); conditions: Classical-Like, 72 hours
T17 construct: expressed in transfected cells; host or cells: Ba/F3 cells, retroviral pBabe-Puro vector (vector made by GeneScript from EGFR L858R)
Method: as §4, §2, §5

EGFR I740dupIPVAK = conditions: Ba/F3 cells, EGFR I740dupIPVAK (PACC), Mut/WT
EGFR A763insLQEA = target: T18, EGFR A763insLQEA (Homo sapiens, UniProt P00533, INS763LQEA); conditions: Classical-Like, 72 hours
T18 construct: expressed in transfected cells; host or cells: Ba/F3 cells, retroviral pBabe-Puro vector

EGFR L858R T790M L718V = target: T19, EGFR L858R T790M L718V (Homo sapiens, UniProt P00533, L718V/L858R/T790M); conditions: T790M-like-3R, 72 hours
T19 construct: expressed in transfected cells; host or cells: Ba/F3

EGFR A763insFQEA = target: T20, EGFR A763insFQEA (Homo sapiens, UniProt P00533, INS763FQEA); conditions: Classical-Like, 72 hours
T20 construct: expressed in transfected cells; host or cells: Ba/F3 cells, retroviral pBabe-Puro vector

EGFR G719A L861Q = target: T21, EGFR G719A L861Q (Homo sapiens, UniProt P00533, G719A/L861Q); conditions: Ba/F3 cells, EGFR G719A L861Q (PACC), Mut/WT
T21 construct: expressed in transfected cells; host or cells: Ba/F3

EGFR Ex19del T790M = target: T22, EGFR Ex19del T790M (Homo sapiens, UniProt P00533, DEL746-750/T790M); conditions: T790M-like-3S, 72 hours
T22 construct: expressed in transfected cells; host or cells: Ba/F3

EGFR L833F = target: T23, EGFR L833F (Homo sapiens, UniProt P00533, L833F); conditions: Classical-Like, 72 hours
T23 construct: expressed in transfected cells; host or cells: Ba/F3 cells, retroviral pBabe-Puro vector
Method: as §4, §2, §5

EGFR E709_T710del insD = target: T24, EGFR E709_T710del insD (Homo sapiens, UniProt P00533, DEL709-709/T710D); conditions: Ba/F3 cells, EGFR E709_T710del insD (PACC), Mut/WT
T24 construct: expressed in transfected cells; host or cells: Ba/F3

EGFR G719S = target: T25, EGFR G719S (Homo sapiens, UniProt P00533, G719S); conditions: Ba/F3 cells, EGFR G719S (PACC), Mut/WT
T25 construct: expressed in transfected cells; host or cells: Ba/F3
Method: as §1, §2, §3

EGFR Ex19del T790M C797S = target: T26, EGFR Ex19del T790M C797S (Homo sapiens, UniProt P00533, C797S/DEL746-750/T790M); conditions: T790M-like-3R, 72 hours
T26 construct: expressed in transfected cells; host or cells: Ba/F3
Method: Data represent the ratio of the IC50 value for a given TKI for cells with a T790M-like-3R EGFR mutation to the IC50 value for cells with wildtype EGFR.
as §2
After 48-72 hours of transduction, 2 μg/ml puromycin (Invitrogen) was added to Ba/F3 cell lines in complete RPMI. To select for EGFR positive cell lines, cells were stained with PE-EGFR (Biolegend) and sorted by FACS. After sorting, EGFR positive cells were maintained in RPMI containing 10% FBS, 1% penicillin/streptomycin, and 1 ng/ml EGF to support cell viability. […] Shortly, cells were plated in 384-well plates (Greiner Bio-One) at 2000-3000 cells per well in technical triplicate. Seven different concentrations of TKIs or DMSO vehicle were added to reach a final volume of 40 μL per well. After 72 hours, 11 μL of Cell Titer Glo (Promega) was added to each well. Plates were incubated for a minimum of 10 minutes, and bioluminescence was determined using a FLUOstar OPTIMA plate reader (BMG LABTECH). Raw bioluminescence values were normalized to DMSO control treated cells, and values were plotted in GraphPad Prism. […] Drug screens were performed in technical triplicate on each plate and either duplicate or triplicate biological replicates. […] Statistical differences between groups were determined by ANOVA as described in the figure legends.

Compound | ratio of IC50 for cells with mutant EGFR to IC50 for cells with wildtype EGFR (Mut/WT) (EGFR H773insNPH) | ratio of IC50 for cells with mutant EGFR to IC50 for cells with wildtype EGFR (Mut/WT) (EGFR G719S T790M) | ratio of IC50 for cells with mutant EGFR to IC50 for cells with wildtype EGFR (Mut/WT) (EGFR Ex19del) | ratio of the IC50 value for cells with a PACC EGFR mutation to the IC50 value for cells with wildtype EGFR (EGFR R776C) | ratio of the IC50 value for cells with a PACC EGFR mutation to the IC50 value for cells with wildtype EGFR (EGFR L858R/L792H) | ratio of IC50 for cells with mutant EGFR to IC50 for cells with wildtype EGFR (Mut/WT) (EGFR L861Q) | ratio of the IC50 value for cells with a PACC EGFR mutation to the IC50 value for cells with wildtype EGFR (EGFR E709A G719S) | ratio of the IC50 value for cells with a PACC EGFR mutation to the IC50 value for cells with wildtype EGFR (EGFR V774M) | ratio of IC50 for cells with mutant EGFR to IC50 for cells with wildtype EGFR (Mut/WT) (EGFR T790M) | ratio of IC50 for cells with mutant EGFR to IC50 for cells with wildtype EGFR (Mut/WT) (EGFR S768dupSVD) | ratio of the IC50 value for cells with a PACC EGFR mutation to the IC50 value for cells with wildtype EGFR (EGFR G719A) | ratio of the IC50 value for cells with a PACC EGFR mutation to the IC50 value for cells with wildtype EGFR (EGFR L747P) | ratio of IC50 for cells with mutant EGFR to IC50 for cells with wildtype EGFR (Mut/WT) (EGFR L718Q T790M) | ratio of IC50 for cells with mutant EGFR to IC50 for cells with wildtype EGFR (Mut/WT) (EGFR N771dupN G724S) | ratio of IC50 for cells with mutant EGFR to IC50 for cells with wildtype EGFR (Mut/WT) (EGFR S720P) | ratio of IC50 for cells with mutant EGFR to IC50 for cells with wildtype EGFR (Mut/WT) (EGFR E709K L858R) | ratio of IC50 for cells with mutant EGFR to IC50 for cells with wildtype EGFR (Mut/WT) (EGFR L858R S784F) | ratio of the IC50 value for cells with a PACC EGFR mutation to the IC50 value for cells with wildtype EGFR (EGFR I740dupIPVAK) | ratio of IC50 for cells with mutant EGFR to IC50 for cells with wildtype EGFR (Mut/WT) (EGFR A763insLQEA) | ratio of IC50 for cells with mutant EGFR to IC50 for cells with wildtype EGFR (Mut/WT) (EGFR L858R T790M L718V) | further results
Cc1cc(C(=O)Nc2nc3cccc(Cl)c3n2[C@@H]2CCCCN(C(=O)/C=C/CN(C)C)C2)ccn1 [Nazartinib] | 0.4242 | 0.04811 | 0.0005409 | 0.2846 | 0.3145 | 0.03861 | 0.09237 | 0.1179 | 0.1166 | 0.4008 | 0.06775 | 0.2221 | 0.317 | 0.3384 | 0.005619 | 0.01992 | 0.03577 | 0.1352 | 0.05507 | 0.6592 | ratio of IC50 for cells with mutant EGFR to IC50 for cells with wildtype EGFR (Mut/WT) (EGFR A763insFQEA): 0.05676; ratio of the IC50 value for cells with a PACC EGFR mutation to the IC50 value for cells with wildtype EGFR (EGFR G719A L861Q): 0.06344; ratio of IC50 for cells with mutant EGFR to IC50 for cells with wildtype EGFR (Mut/WT) (EGFR Ex19del T790M): 0.01265; ratio of IC50 for cells with mutant EGFR to IC50 for cells with wildtype EGFR (Mut/WT) (EGFR L833F): 0.0584; ratio of the IC50 value for cells with a PACC EGFR mutation to the IC50 value for cells with wildtype EGFR (EGFR E709_T710del insD): 0.1584; ratio of the IC50 value for cells with a PACC EGFR mutation to the IC50 value for cells with wildtype EGFR (EGFR G719S): 0.08165; ratio of IC50 for cells with mutant EGFR to IC50 for cells with wildtype EGFR (Mut/WT) (EGFR Ex19del T790M C797S): 5.557
C=CC(=O)Nc1cc(Nc2nccc(-c3c[nH]c4ccccc34)n2)c(OC)cc1N(C)CCN(C)C [AZ5104] | 3.997 | 0.1839 | 0.03035 | 0.1019 | 4.408 | 0.5871 | 0.797 | 0.5635 | 1.125 | 1.73 | 0.1896 | 3.59 | 26.6 | 1.826 | 0.009841 | 0.1151 | 0.0429 | 2.234 | 0.03029 | 19.66 | ratio of IC50 for cells with mutant EGFR to IC50 for cells with wildtype EGFR (Mut/WT) (EGFR A763insFQEA): 0.3966; ratio of the IC50 value for cells with a PACC EGFR mutation to the IC50 value for cells with wildtype EGFR (EGFR G719A L861Q): 0.8044; ratio of IC50 for cells with mutant EGFR to IC50 for cells with wildtype EGFR (Mut/WT) (EGFR Ex19del T790M): 0.1837; ratio of IC50 for cells with mutant EGFR to IC50 for cells with wildtype EGFR (Mut/WT) (EGFR L833F): 0.7284; ratio of the IC50 value for cells with a PACC EGFR mutation to the IC50 value for cells with wildtype EGFR (EGFR E709_T710del insD): 0.03063; ratio of the IC50 value for cells with a PACC EGFR mutation to the IC50 value for cells with wildtype EGFR (EGFR G719S): 0.3756; ratio of IC50 for cells with mutant EGFR to IC50 for cells with wildtype EGFR (Mut/WT) (EGFR Ex19del T790M C797S): 56.35
